# Test: Human HepG2 cell viability assay in 384 well format
# Format: toxicity, cell-based
# Parameters: dose 125 nL, time 70.5 hour; cytotoxicity at 70.5 h: concentration not given beside the values
# Settings: HepG2 cells, read-out: Inhibition
row,Compound,cytotoxicity at 70.5 h [%]
1,Cc1cc2ncn(C(=O)N3CCCC3)c2cc1C,-2.26
2,CCCS(=O)(=O)N1CCN(Cc2ccco2)CC1,-7.67
3,Cc1noc([C@H]2C[C@H]3OCC[C@H]3N(S(=O)(=O)C3CC3)C2)n1,-11.6
4,c1coc(CN2Cc3nccn3CC(Cn3cncn3)C2)c1 (centres undefined),1.12
5,COC[C@@]12CCO[C@@H]1CCN(C(=O)COc1ccccc1OC)C2,-11.3
6,CCN1CC2(CC1=O)CN(C(=O)c1ccco1)CCN(C(=O)N(C)C)C2 (centres undefined),-5.37
7,Cc1cccc(CN2C[C@@H]3COC[C@]3(COc3ccc(C#N)cn3)C2)n1,-0.115
8,CCS(=O)(=O)N1CCC(c2nc3ccc(-c4ccccc4)cn3n2)CC1,-5.21
9,Cc1nc(CN2C(=O)C[C@@H]3[C@@H]2CCN3C(=O)C2CCOCC2)cs1,-8.18
10,c1cncc(OCC2CN(Cc3ccco3)Cc3nccn3C2)c1 (centres undefined),21.3
11,CCOCC(=O)N1C[C@@H]2COC[C@H](c3nc(C)no3)[C@@H]2C1,-2.34
12,Cc1noc([C@@H]2CC[C@@H]3[C@@H](CCN3S(=O)(=O)C3CC3)O2)n1,2.67
13,CN(C)C(=O)CO[C@@H]1CC[C@H]2[C@H]1OCCN2C(=O)C1CCOCC1,-3.79
14,CCn1nnc2c1C(COC)CN(C(=O)COc1ccccc1)C2 (centres undefined),0.105
15,COCC1c2c(cnn2C)CCN1Cc1ccoc1 (centres undefined),-3.89
16,C[C@H]1C[C@@H]2CCN(C(=O)c3ccncn3)C[C@H]2O1,-0.838
17,COCC1COCCC12CCN(C(=O)CCOc1ccccc1)CC2 (centres undefined),-2.28
18,Cn1cc(-c2cnc(N3CCCC3)nc2)cc1C(=O)O,1.36
19,CCO[C@@H]1CC[C@H]2[C@H]1OCCN2C(=O)C1CCOCC1,-2.08
20,CC(C)NC(=O)C1CN(C(=O)c2ccc(F)cc2)CC12CCOCC2 (centres undefined),23.6
21,Cc1nc(N2CCOCC2)nc2c1CCN(C(=O)NC1CCCC1)CC2,20.6
22,CCN1C[C@H]2CCN(C(C)=O)CC[C@H]2S1(=O)=O,-14.5

row,Compound,cytotoxicity at 70.5 h [%]
1,O=c1cc(Cn2ccnc2)nc2n1CCCN(Cc1ccsc1)C2,-19.5
2,CC1CCc2nn(CCNC(=O)Cc3cccs3)c(=O)cc2C1 (centres undefined),-2.17
3,CC1CCc2nn(CCNC(=O)c3ccco3)c(=O)cc2C1 (centres undefined),-5.13
4,CNC(=O)C1(CCCc2ccccn2)CN(Cc2coc(C)n2)C1,-5.7
5,CN1CCC(Cc2cnc3ccccc3c2)C1 (centres undefined),1.19
6,CNC(=O)c1c[nH]nc1C1CCCN1c1ncccn1 (centres undefined),-4.93
7,Cc1cc2nccc(C3CCCN(C(=O)c4cnccn4)C3)n2n1 (centres undefined),0.174
8,CN(C)C(=O)Cn1c(C2CC2)c(CN2CCOCC2)c2cccnc21,-1.8
9,CSc1ncc(C(=O)N(C)C(C)Cc2ccccn2)cn1 (centres undefined),-5.33
10,Cc1cc(C)n(CC(=O)N2CCC(c3cc4cccnc4[nH]3)CC2)n1,29.7
11,Cc1cc(C)n(CC(=O)N2CCCC2c2cc3cccnc3[nH]2)n1 (centres undefined),2.7
12,CNc1ncc(CN2CCC(CCc3ccccc3)CC2)cn1,-1.31
13,COc1cc2c(cc1CN1CCc3sccc3C1C)OCO2 (centres undefined),2.98
14,Cc1cnc2[nH]c(C(F)(F)F)c(CN3CCCC(CO)C3)c2c1 (centres undefined),3.56
15,COCC(=O)N1CCC(c2cc(-c3ccc(OC)cc3)n[nH]2)C1 (centres undefined),10.4
16,Cc1ccc(CN2CCc3c(nc4cc(C5CC5)nn4c3O)C2)s1,18.3
17,COCC(=O)N1CCC(c2cc(-c3ccc(C)cc3)n[nH]2)C1 (centres undefined),14.4
18,CC1CCN(Cc2c(C(C)C)[nH]c3ncccc23)CC1,-8.35
19,COc1ccc2c(c1)NC(C1CCNCC1)NS2(=O)=O (centres undefined),-4.76
20,COc1ccc2c(c1)NC(C1CCN(C(=O)C3CC3)CC1)NS2(=O)=O (centres undefined),-4.62
21,CC(C)OCCCNS(=O)(=O)c1ccc2c(c1)NC(=O)C(C)O2 (centres undefined),-4.7
22,CCN(CC)CCCNCc1cc2cc(C)ccc2[nH]c1=O,7.87

row,Compound,cytotoxicity at 70.5 h [%]
1,CN1CCC(c2cncc(Cl)n2)CC1,-5.05
2,CS(=O)(=O)N1CCCC(Cc2cnc(Br)cn2)CC1 (centres undefined),13.7
3,Cc1cc(C(=O)N[C@@H]2CCC[C@@H](N3CCOCC3)[C@@H]2O)no1,-6.42
4,Cc1noc(C)c1CCC(=O)NCC1(O)CCN(c2ccccn2)C1 (centres undefined),-6.52
5,CN1CCCC(c2cccc(-c3cccc(F)c3)n2)C1 (centres undefined),-5.53
6,Cc1cc(Oc2ccccc2C)nc(C2CCCN2)n1 (centres undefined),9.24
7,COCCC(=O)N1CCCC(c2n[nH]cc2C)C1 (centres undefined),15.1
8,NC(=O)c1cc(CC2CCCN(c3cnccn3)C2)ncn1 (centres undefined),-6.16
9,CCCc1cc(C(=O)N[C@@H]2CCC[C@@H](N3CCCC3)[C@@H]2O)no1,-4
10,Cc1ncc(CN2CCC(c3nc(O)cc(-c4ccsc4)n3)CC2)cn1,-3.5
11,c1ncc(CN2CC(Cc3nccc4cc[nH]c34)C2)cn1,-1.22
12,CC(C)c1nnc(CCC(=O)N2CCOC(c3cnccn3)C2)o1 (centres undefined),-5.45
13,O=C(O)c1ccccc1-n1cnc(CN2CCCCCC2)c1,-1.66
14,CN1CCNCC(Cc2cnc3ccccc3c2)C1 (centres undefined),-3.02
15,Fc1ccc(Oc2nccnc2C2CCN(C3CCOCC3)CC2)cc1,-3.07
16,CN1CCCC(c2cccc(-c3cccc(Cl)c3)n2)C1 (centres undefined),18
17,c1ccc(CN2CCCC[C@H]3CN(c4ncccn4)C[C@H]32)cc1,-6.75
18,c1ccc2ncc(CC3CCNC3)cc2c1 (centres undefined),19.8
19,COc1ccccc1C(=O)N1C[C@@H]2CCCCN(CC(N)=O)[C@@H]2C1,-11.4
20,O=S(=O)(c1ccccc1)N1C[C@@H]2CCCCN(Cc3cccs3)[C@@H]2C1,-17.2
21,Cc1cnc(CC2COCCN(C(=O)c3cncnc3)C2)cn1 (centres undefined),-5.02
22,CCS(=O)(=O)N1C[C@@H](O)[C@H](N2CCc3ccccc3C2)C1,-5.96

row,Compound,cytotoxicity at 70.5 h [%]
1,Cc1ncc(C(=O)N2CCCC2(C)C(=O)N2CCOCC2)c(C)n1 (centres undefined),-7.99
2,Cc1ccc(S(=O)(=O)N2CCCC(c3n[nH]cc3C(=O)N(C)C)C2)cc1 (centres undefined),9.91
3,CCN(CC)C(=O)CN1CCC(c2nc(C)c3c(n2)N(C)CCC3)CC1,17.6
4,CC(C)C(=O)N1CCCC1c1nc(N(C)C)ncc1-c1ccc(Cl)cc1 (centres undefined),6.28
5,NC(=O)c1cccc(C2CCN(c3ncccn3)CC2)n1,-13.4
6,Cc1cc(-c2ccccc2)nc(C2CCCN2S(C)(=O)=O)n1 (centres undefined),-5.33
7,CC(=O)Nc1nccn1Cc1ccccc1Cl,-2.67
8,CC(=O)NC1CCN(c2cnc(C3CCNCC3)cn2)CC1,-3.96
9,CC(=O)N1CCN(c2cncc(C3CCNCC3)n2)CC1,34.1
10,CN(C)C(=O)Cn1c(C2CC2)c(CN2CCC(O)CC2)c2cccnc21,12.5
11,CN(C)C(=O)c1sc2ncccc2c1C1CNCCO1 (centres undefined),-6.3
12,c1ccc(CN2CCNCC(Cc3cnccn3)C2)cc1 (centres undefined),-1.06
13,Fc1ccccc1CNc1ccnc(C2CCNCC2)c1,18
14,O=C(N[C@H]1CN[C@H]2CCCO[C@H]21)c1cccnc1,-10.1
15,CC1N(CC2CC2)C(=O)COC12CCN(Cc1nccs1)CC2 (centres undefined),-8.15
16,Cc1noc([C@@H]2C[C@H]3OCC[C@H]3N(S(=O)(=O)c3cccnc3)C2)n1,-8.05
17,c1csc(CN2Cc3nccn3CC(Cn3cncn3)C2)n1 (centres undefined),-7.09
18,CCN1CC2(CC1=O)CN(Cc1ccco1)CCN(C(=O)N(C)C)C2 (centres undefined),-8.06
19,O=C(Cc1cccs1)N1C[C@@H]2OCCN(CC3CCCC3)[C@@H]2C1,-3.16
20,CCc1ccc(CN2CC[C@H]3C[C@H](c4nnc(C)[nH]4)O[C@@H]3C2)o1,-1.93
21,Cn1cc(C(=O)NC[C@@H]2OC[C@H]3CN(Cc4ccco4)CC[C@H]32)cn1,-7.09
22,COCCO[C@@H]1CCN(C(=O)c2ccc(C)o2)[C@@H]1Cc1cccnc1,4.05

row,Compound,cytotoxicity at 70.5 h [%]
1,Cc1noc([C@@H]2CC[C@@H]3[C@@H](CCN3S(=O)(=O)c3cccnc3)O2)n1,-4.36
2,CC(C)NC(=O)N1CCN(CC2CC2)CC2(CC(=O)N(C)C2)C1 (centres undefined),-4.82
3,Fc1cccc(N2C[C@H]3CCN(c4cccnc4)C[C@H]3C2)c1,-5.68
4,CCCS(=O)(=O)N1CCC2(CN(c3ccsc3)C(=O)CN2C)C1 (centres undefined),-3.38
5,O=C(NCc1cccs1)[C@H]1CC[C@@H]2[C@@H](CCN2c2ncccn2)O1,2.87
6,CC1=N[C@@]2(CC[C@@H]3CN(CC(=O)N(C)C)C[C@@H]32)C(=O)N1CC(C)C,52.3
7,CCC1=N[C@@]2(CC[C@@H]3CN(CC(=O)N(C)C)C[C@@H]32)C(=O)N1CC1CC1,-13.2
8,CC(=O)NC1CCN(c2ccnc(C3CCNCC3)c2)CC1,-5.48
9,Cc1cccc(COC[C@@H]2CC[C@H]3[C@H](CCN3Cc3ccco3)O2)n1,-6.18
10,Cc1nnc(N2CCCC3(CN(Cc4ccc(C)s4)CCO3)C2)o1 (centres undefined),-8.9
11,c1cncc(OC[C@]23COC[C@H]2CN(Cc2cccs2)C3)c1,-7.3
12,COCC1c2c(cnn2CC2CCOCC2)CCN1Cc1ccoc1 (centres undefined),3.09
13,COc1ccc(CN2C[C@@H]3COC[C@]3(COc3cccnc3)C2)cc1,-7.11
14,CCc1ncnc2c1CCN(Cc1ccccn1)CC2,28
15,COC[C@@H]1CCC[C@]12CN(Cc1cccc(C)n1)CCO2,-14.3
16,CN1CC(=O)N(c2ccccc2)CC12CCN(Cc1cccnc1)C2 (centres undefined),-11.3
17,Cc1ccc(CN2CCC(O)(Cn3nc(-c4cccs4)oc3=O)CC2)o1,-1.27
18,CN(C)CCN(Cc1ccccn1)Cc1ccnn1C1CCCCO1 (centres undefined),-2.87
19,Fc1ccc(CN[C@@H]2COC[C@H]2c2ccc(F)cc2)cc1,0.602
20,Cc1ccc(CN(CCN(C)C)Cc2ccnn2C2CCCCO2)o1 (centres undefined),-3.26
21,CN(C)CCCN(Cc1ccco1)Cc1ccnn1C1CCCCO1 (centres undefined),-8.64

# Reference: ChEMBL document CHEMBL3507680, “University of Dundee, Gates Library screen for HepG2 cell viability”
